Where a SMILES comes first, the peptide text is derived from it. [ ]: non-standard residue; d: D form. The star is where a group is joined. DOTA = O=C(O)CN1CCN(CC(=O)O)CCN(CC(=O)*)CCN(CC(=O)O)CC1
Assay: Biodistribution experiments in normal mice after i.v. injection
Type: in vivo
Conditions: mouse, in vivo, iv; for tissue uptake dose at 1 h / tissue uptake dose at 3 h / tissue uptake dose at 10 min: male, ddY, total radioactivity, Biodistribution of radioactivity
Outline: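 Male ddY mice (6 weeks, 27–32 g) received tracer i.v. (37–740 kBq/100 μL); 4–5 per group sacrificed at 10, 60 and 180 min. Weighed tissues and whole left femur (bone) gamma-counted with background and decay correction.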

Molecule `O=C(O)C[C@@H](NC(=O)[C@@H](CC(=O)O)NC(=O)[C@@H](CC(=O)O)NC(=O)[C@@H](CC(=O)O)NC(=O)[C@@H](CC(=O)O)NC(=O)CN1CCN(CC(=O)O)CCN(CC(=O)O)CCN(CC(=O)O)CC1)C(=O)O` [^67Ga-DOTA-(D-Asp)5, metal not drawn] ({DOTA}-[dD][dD][dD][dD][dD]-OH) has a tissue uptake dose at 1 h (Blood) of 0.27 %ID, a tissue uptake dose at 3 h (Blood) of 0.13 %ID and a tissue uptake dose at 10 min (Bone (Femur)) of 6.78 %ID. It also gave a tissue uptake dose at 1 h (Bone (Femur)) of 5.01 %ID, a tissue uptake dose at 3 h (Bone (Femur)) of 2.8 %ID and a tissue uptake dose at 10 min (Brain) of 0.1 %ID. For the same molecule, the tissue uptake dose at 1 h (Brain) was 0.02 %ID, the tissue uptake dose at 3 h (Brain) was 0.01 %ID and the tissue uptake dose at 10 min (Heart) was 1.03 %ID. It also gave a tissue uptake dose at 1 h (Heart) of 0.12 %ID, a tissue uptake dose at 3 h (Heart) of 0.06 %ID and a tissue uptake dose at 10 min (Kidney) of 12 %ID. It also gave a tissue uptake dose at 1 h (Kidney) of 6.31 %ID, a tissue uptake dose at 3 h (Kidney) of 1.45 %ID and a tissue uptake dose at 10 min (Large-intestine) of 0.47 %ID. It also gave a tissue uptake dose at 1 h (Large-intestine) of 0.22 %ID, a tissue uptake dose at 3 h (Large-intestine) of 0.22 %ID and a tissue uptake dose at 10 min (Liver) of 0.67 %ID. The tissue uptake dose at 1 h (Liver) was 0.22 %ID, the tissue uptake dose at 3 h (Liver) was 0.14 %ID and the tissue uptake dose at 10 min (Lung) was 2.03 %ID. For the same molecule, the tissue uptake dose at 1 h (Lung) was 0.3 %ID, the tissue uptake dose at 3 h (Lung) was 0.09 %ID and the tissue uptake dose at 10 min (Muscle) was 0.68 %ID. For the same molecule, the tissue uptake dose at 1 h (Muscle) was 0.13 %ID, the tissue uptake dose at 3 h (Muscle) was 0.07 %ID and the tissue uptake dose at 10 min (Pancreas) was 0.72 %ID. For the same molecule, the tissue uptake dose at 1 h (Pancreas) was 0.25 %ID, the tissue uptake dose at 3 h (Pancreas) was 0.06 %ID and the tissue uptake dose at 10 min (Small-intestine) was 0.55 %ID. The tissue uptake dose at 1 h (Small-intestine) was 0.23 %ID, the tissue uptake dose at 3 h (Small-intestine) was 0.18 %ID and the tissue uptake dose at 10 min (Spleen) was 0.56 %ID. For the same molecule, the tissue uptake dose at 1 h (Spleen) was 0.16 %ID, the tissue uptake dose at 3 h (Spleen) was 0.11 %ID and the tissue uptake dose at 10 min (Stomach) was 0.32 %ID. The tissue uptake dose at 1 h (Stomach) was 0.1 %ID, the tissue uptake dose at 3 h (Stomach) was 0.48 %ID and the “Accumulation of radioactivity in bone (in words)” value (“Accumulation of radioactivity” for short) was “moderate accumulation of radioactivity in bone”.

In the case of `O=C(O)CC[C@H](NC(=O)[C@H](CCC(=O)O)NC(=O)[C@H](CCC(=O)O)NC(=O)[C@H](CCC(=O)O)NC(=O)[C@H](CCC(=O)O)NC(=O)[C@H](CCC(=O)O)NC(=O)[C@H](CCC(=O)O)NC(=O)[C@H](CCC(=O)O)NC(=O)[C@H](CCC(=O)O)NC(=O)[C@H](CCC(=O)O)NC(=O)[C@H](CCC(=O)O)NC(=O)[C@H](CCC(=O)O)NC(=O)[C@H](CCC(=O)O)NC(=O)[C@H](CCC(=O)O)NC(=O)CN1CCN(CC(=O)O)CCN(CC(=O)O)CCN(CC(=O)O)CC1)C(=O)O` [^67Ga-DOTA-(L-Glu)14, metal not drawn], the tissue uptake dose at 10 min (Blood) is reported as 1.85 %ID, the tissue uptake dose at 1 h (Blood) is reported as 0.12 %ID and the tissue uptake dose at 3 h (Blood) is reported as 0.05 %ID. It also gave a tissue uptake dose at 10 min (Bone (Femur)) of 9.81 %ID, a tissue uptake dose at 1 h (Bone (Femur)) of 11.1 %ID and a tissue uptake dose at 3 h (Bone (Femur)) of 10.9 %ID. It also gave a tissue uptake dose at 10 min (Brain) of 0.05 %ID, a tissue uptake dose at 1 h (Brain) of 0.01 %ID and a tissue uptake dose at 3 h (Brain) of 0.03 %ID. It also gave a tissue uptake dose at 10 min (Heart) of 0.67 %ID, a tissue uptake dose at 1 h (Heart) of 0.1 %ID and a tissue uptake dose at 3 h (Heart) of 0.06 %ID. For the same molecule, the tissue uptake dose at 10 min (Kidney) was 22.1 %ID, the tissue uptake dose at 1 h (Kidney) was 26.4 %ID and the tissue uptake dose at 3 h (Kidney) was 25.1 %ID. It also gave a tissue uptake dose at 10 min (Large-intestine) of 0.37 %ID, a tissue uptake dose at 1 h (Large-intestine) of 0.07 %ID and a tissue uptake dose at 3 h (Large-intestine) of 0.23 %ID. The tissue uptake dose at 10 min (Liver) was 0.47 %ID, the tissue uptake dose at 1 h (Liver) was 0.13 %ID and the tissue uptake dose at 3 h (Liver) was 0.14 %ID. For the same molecule, the tissue uptake dose at 10 min (Lung) was 1.57 %ID, the tissue uptake dose at 1 h (Lung) was 0.13 %ID and the tissue uptake dose at 3 h (Lung) was 0.06 %ID. For the same molecule, the tissue uptake dose at 10 min (Muscle) was 0.63 %ID, the tissue uptake dose at 1 h (Muscle) was 0.1 %ID and the tissue uptake dose at 3 h (Muscle) was 0.3 %ID. It also gave a tissue uptake dose at 10 min (Pancreas) of 0.59 %ID, a tissue uptake dose at 1 h (Pancreas) of 0.13 %ID and a tissue uptake dose at 3 h (Pancreas) of 0.08 %ID. It also gave a tissue uptake dose at 10 min (Small-intestine) of 0.5 %ID, a tissue uptake dose at 1 h (Small-intestine) of 0.13 %ID and a tissue uptake dose at 3 h (Small-intestine) of 0.15 %ID. The tissue uptake dose at 10 min (Spleen) was 0.44 %ID, the tissue uptake dose at 1 h (Spleen) was 0.1 %ID and the tissue uptake dose at 3 h (Spleen) was 0.11 %ID. It also gave a tissue uptake dose at 10 min (Stomach) of 0.22 %ID, a tissue uptake dose at 1 h (Stomach) of 0.07 %ID and a tissue uptake dose at 3 h (Stomach) of 0.07 %ID. For the same molecule, the “Accumulation of radioactivity” value was “high accumulation and retention of radioactivity in bone”, the “Clearance from the blood (in words)” value was “rapid clearance from the blood” and the “Radioactivity in the kidneys (in words)” value was “retained”.

In the case of `O=C(O)C[C@@H](NC(=O)[C@@H](CC(=O)O)NC(=O)[C@@H](CC(=O)O)NC(=O)[C@@H](CC(=O)O)NC(=O)[C@@H](CC(=O)O)NC(=O)[C@@H](CC(=O)O)NC(=O)[C@@H](CC(=O)O)NC(=O)[C@@H](CC(=O)O)NC(=O)CN1CCN(CC(=O)O)CCN(CC(=O)O)CCN(CC(=O)O)CC1)C(=O)O` [^67Ga-DOTA-(D-Asp)8, metal not drawn] ({DOTA}-[dD][dD][dD][dD][dD][dD][dD][dD]-OH), the tissue uptake dose at 10 min (Blood) is reported as 1.94 %ID, the tissue uptake dose at 1 h (Blood) is reported as 0.33 %ID and the tissue uptake dose at 3 h (Blood) is reported as 0.13 %ID. It also gave a tissue uptake dose at 10 min (Bone (Femur)) of 9.86 %ID, a tissue uptake dose at 1 h (Bone (Femur)) of 11.6 %ID and a tissue uptake dose at 3 h (Bone (Femur)) of 12.5 %ID. For the same molecule, the tissue uptake dose at 10 min (Brain) was 0.05 %ID, the tissue uptake dose at 1 h (Brain) was 0.01 %ID and the tissue uptake dose at 3 h (Brain) was 0.01 %ID. The tissue uptake dose at 10 min (Heart) was 0.63 %ID, the tissue uptake dose at 1 h (Heart) was 0.14 %ID and the tissue uptake dose at 3 h (Heart) was 0.05 %ID. It also gave a tissue uptake dose at 10 min (Kidney) of 12.8 %ID, a tissue uptake dose at 1 h (Kidney) of 2.49 %ID and a tissue uptake dose at 3 h (Kidney) of 1.23 %ID. For the same molecule, the tissue uptake dose at 10 min (Large-intestine) was 0.26 %ID, the tissue uptake dose at 1 h (Large-intestine) was 0.05 %ID and the tissue uptake dose at 3 h (Large-intestine) was 0.08 %ID. For the same molecule, the tissue uptake dose at 10 min (Liver) was 0.46 %ID, the tissue uptake dose at 1 h (Liver) was 0.14 %ID and the tissue uptake dose at 3 h (Liver) was 0.11 %ID. It also gave a tissue uptake dose at 10 min (Lung) of 1.34 %ID, a tissue uptake dose at 1 h (Lung) of 0.26 %ID and a tissue uptake dose at 3 h (Lung) of 0.1 %ID. The tissue uptake dose at 10 min (Muscle) was 0.57 %ID, the tissue uptake dose at 1 h (Muscle) was 0.15 %ID and the tissue uptake dose at 3 h (Muscle) was 0.14 %ID. The tissue uptake dose at 10 min (Pancreas) was 0.57 %ID, the tissue uptake dose at 1 h (Pancreas) was 0.11 %ID and the tissue uptake dose at 3 h (Pancreas) was 0.08 %ID. It also gave a tissue uptake dose at 10 min (Small-intestine) of 0.39 %ID, a tissue uptake dose at 1 h (Small-intestine) of 0.13 %ID and a tissue uptake dose at 3 h (Small-intestine) of 0.1 %ID. The tissue uptake dose at 10 min (Spleen) was 0.42 %ID, the tissue uptake dose at 1 h (Spleen) was 0.16 %ID and the tissue uptake dose at 3 h (Spleen) was 0.09 %ID. The tissue uptake dose at 10 min (Stomach) was 0.34 %ID, the tissue uptake dose at 1 h (Stomach) was 0.04 %ID and the tissue uptake dose at 3 h (Stomach) was 0.1 %ID. For the same molecule, the “Accumulation of radioactivity” value was “high accumulation and retention of radioactivity in bone”.
